Measurements from patent US10744141B2, “Compositions and methods for treating cancer” (CASE WESTERN RESERVE UNIVERSITY, priority 2015, dated 2020).
“Also recorded” adds a separate entry of the source. Each block holds one molecule with its values, some of them ahead of it.

Columns and labels:
[1] = system: A549; experiment: MTT assay with Compound 2/Dasatinib dose escalation combinations; assay type: cell-based; details: dose escalation of both drugs in parallel
[2] = system: MOLT4; experiment: Western blot time course of Y307 dephosphorylation and target engagement; assay type: cell-based; details: MOLT4, increasing doses, various timepoints
Protocol: FIG. 3 illustrates a western blot analysis showing the kinetics of Y307 dephosphorylation and target engagement induced by Compound 1.
To evaluate the kinetics of Y307 dephosphorylation in the context of SMAP-mediated phosphatase activation, a time course study was conducted in the c-Myc driven T-ALL cell line MOLT4 with increasing doses of Compound 1 at various timepoints. PP2A has been well established to dephosphorylate the c-Myc proto-oncogene via dephosphorylation at Serine62 as a priming event for proteasome-mediated degradation, and prior work in the lab has validated Compound 1 mediates c-Myc proteolysis in in vitro models of c-Myc driven disease.

[3] = target: PP2A A-C dimer (Homo sapiens, UniProt P30153+P67775); experiment: Radiolytic MS footprinting of PP2A A-C dimer with and without Compound 1
Chain of PP2A A-C dimer (P30153 whole entry): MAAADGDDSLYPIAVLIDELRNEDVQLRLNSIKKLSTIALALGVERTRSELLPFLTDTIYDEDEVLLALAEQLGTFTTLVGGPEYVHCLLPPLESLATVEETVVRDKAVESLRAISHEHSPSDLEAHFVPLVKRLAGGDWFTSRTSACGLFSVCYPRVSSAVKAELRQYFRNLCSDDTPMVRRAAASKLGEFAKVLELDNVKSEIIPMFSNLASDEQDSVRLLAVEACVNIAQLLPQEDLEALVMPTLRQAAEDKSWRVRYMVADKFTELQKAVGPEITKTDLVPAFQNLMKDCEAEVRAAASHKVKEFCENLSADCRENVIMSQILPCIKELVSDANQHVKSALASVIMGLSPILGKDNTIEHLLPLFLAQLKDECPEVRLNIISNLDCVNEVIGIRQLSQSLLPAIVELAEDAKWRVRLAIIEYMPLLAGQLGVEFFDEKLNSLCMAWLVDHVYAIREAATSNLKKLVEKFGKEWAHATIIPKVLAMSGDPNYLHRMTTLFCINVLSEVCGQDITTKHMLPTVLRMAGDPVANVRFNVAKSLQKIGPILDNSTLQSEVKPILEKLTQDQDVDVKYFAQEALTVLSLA
Chain of PP2A A-C dimer (P67775 whole entry): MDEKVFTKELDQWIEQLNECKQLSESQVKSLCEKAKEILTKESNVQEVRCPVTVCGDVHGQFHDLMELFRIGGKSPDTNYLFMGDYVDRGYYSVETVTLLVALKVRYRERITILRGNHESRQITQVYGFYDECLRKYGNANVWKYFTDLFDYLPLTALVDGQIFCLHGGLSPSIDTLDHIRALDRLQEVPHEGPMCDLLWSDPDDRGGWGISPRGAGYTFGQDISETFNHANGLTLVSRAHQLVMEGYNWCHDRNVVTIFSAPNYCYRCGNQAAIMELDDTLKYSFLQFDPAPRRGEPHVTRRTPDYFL
Source text: FIG. 2 is a model illustrating a visual representation of conformational changes in the PP2A A-C dimer as detected by radiolytic MS footprinting.
In order to elucidate the conformational changes in PP2A induced by SMAPs, we conducted structural mass spectrometry using radiolytic MS footprinting, a novel approach to probe the structural alterations of complexes such as PP2A. In these experiments, hydroxyl radicals are generated by an X-ray beam and oxidatively modify solvent-exposed amino acid side chains. Areas of a protein that are solvent inaccessible are spared these modifications and can be considered protected regions. Compared to the PP2A A-C dimer alone, addition of Compound 1 induced significant changes in solvent exposure in both the A and C subunits, indicating a conformational change (FIG. 2).

[4] = system: SRC; experiment: Time course phosphoproteomics with KSEA, SRC output; assay type: cell-based; details: H358 cells, 17.5 μM DT-061, relative to DMSO at the same time-point
Protocol: (§1) H358 cells (ATCC) were cultured at 37° C. and 5% CO2 using RPMI media supplemented with 10% FBS and 0.5% penicillin/streptomycin. Per condition, 20 million cells were treated with the appropriate reagent and harvested at the stated time point. The following are the doses used: 17.5 μM DT-061, 1 μM AZD6244, and 0.25 μM MK2206. Cell pellets were then stored at −80° C. for short term. To extract proteins, the cells were pulse sonicated in 2% SDS buffer over ice and in the presence of protease and phosphatase inhibitors. Cysteine amino acid residues were then reduced and alkylated. 800 μg of protein per sample was then digested with Lys-C and Trypsin overnight at 37° C. […]
(§2) The phospho-enriched peptides were analyzed by LC-MS/MS using a LTQ-Orbitrap Velos mass spectrometer (Thermo Scientific, Calif.) equipped with a nanoAcquity™ Ultra-high pressure liquid chromatography system (Waters, Mass.). […] The LC-MS/MS raw files were imported and analyzed by the Rosetta Elucidator™ and Mascot programs to sequence the peptides and to identify the parent protein.
(§3) The R programming language was used to generate the data and heat maps. […] Kinase-substrate relationships were determined from the PhosphoSitePlus database. […] The fold change (FC) for each identified hit was then calculated by taking the median peptide intensity with treatment, divided by median peptide intensity with DMSO. […]

[5] = system: ERK; experiment: Time course phosphoproteomics with KSEA, ERK output; assay type: cell-based; details: H358 cells, 17.5 μM DT-061, relative to DMSO at the same time-point
Protocol: as §1, §2, §3

[6] = C-terminal tail peptide [303-309]/C, residue Y or F
[7] = catalytic subunit peptide [178-186]/C, residue H179
[8] = peptide [198-217]/C, residue W200
[9] = peptide [200-217]/C, residue W209
[10] = peptide [200-223]/C, residue W200
[11] = peptide [200-223]/C, residue W209
[12] = peptide [200-223]/C, residue Y218
[13] = peptide [259-265]/C, residue Y265
[14] = peptide [279-286]/C, residue K283
[15] = peptide [279-286]/C, residue Y284

decrease of the IC50 (GI50) of Compound 2 [1]: nearly two-fold
SMILES: O=S(=O)(N[C@@H]1CCCC(N2c3ccccc3CCc3ccccc32)[C@H]1O)c1ccc(OC(F)(F)F)cc1 (stereo partly drawn) [Compound 2]

SMILES: O=S(=O)(NC[C@H](O)CN1c2ccccc2CCc2ccccc21)c1ccc(OC(F)(F)F)cc1 [Compound 1]
Parp cleavage [2]: resulting in Parp cleavage in a similar time-dependent manner
Y307 dephosphorylation kinetics [2]: Y307 dephosphorylation occurs as a secondary event to the initial PP2A activation; also recorded: precede Y307 dephosphorylation
dephosphorylation of c-Myc [2]: very rapid dephosphorylation of c-Myc
Modification Rate, S^−1 + Ligand [3, 6]: 0.56 ± 0.06 S^−1
Protection factor [3, 6]: 12.0
decrease in solvent accessibility of the C terminal tail of the catalytic subunit ([3]; Compound 1 treatment compared to control): 12 fold
Modification Rate, S^−1 + Ligand [3, 7]: 2.4 ± 0.2 S^−1
Protection factor [3, 7]: 7.2
Modification Rate, S^−1 + Ligand [3, 8]: 1.8 ± 0.2 S^−1
Protection factor [3, 8]: 6.2
Modification Rate, S^−1 + Ligand [3, 9]: 2.3 ± 0.1 S^−1
Protection factor [3, 9]: 4.6
Modification Rate, S^−1 + Ligand [3, 10]: 1.4 ± 0.1 S^−1
Protection factor [3, 10]: 4.6
Modification Rate, S^−1 + Ligand [3, 11]: 2.1 ± 0.1 S^−1
Protection factor [3, 11]: 5.4
Modification Rate, S^−1 + Ligand [3, 12]: 0.31 ± 0.03 S^−1
Protection factor [3, 12]: 0.9
Modification Rate, S^−1 + Ligand [3, 13]: 0.12 ± 0.001 S^−1
Protection factor [3, 13]: 4.8
Modification Rate, S^−1 + Ligand [3, 14]: 0.14 ± 0.01 S^−1
Protection factor [3, 14]: 15
Modification Rate, S^−1 + Ligand [3, 15]: 0.13 ± 0.01 S^−1
Protection factor [3, 15]: 6.1

SMILES: O=S(=O)(N[C@@H]1CCC[C@H](N2c3ccccc3Oc3ccccc32)[C@H]1O)c1ccc(OC(F)(F)F)cc1 [DT-061]
SRC activity output (KSEA) [4]: minimal changes in SRC output
ERK activity output (KSEA) [5]: limited suppression of ERK output
